The source of these data is US20220347171A1, “TREATMENT OF PRURIGO NODULARIS” (TREVI THERAPEUTICS, INC., priority 2016, published 2022).

Where a name gives a salt, the structure may show the parent alone.

The subject of this experiment is prurigo nodularis patients. Kind of experiment: TR03ext (Example 3), titrated 30 mg QD to 180 mg BID: ItchyQoL Total Score. Format: in vivo, human. As to conditions: Baseline 75.2 (15.1). The source says:
This clinical study was a Phase 2 Open Label Extension Study (clinical study TR03ext) of the randomized, double-blind, 3-parallel arm, placebo controlled dose ranging study described in Example 2. All those subjects who were randomized, and then completed Example 2 study, were eligible to participate in the Extension Study.
The primary endpoint was a description of the overall incidence and nature of Treatment-Emergent AEs (TEAES) during weeks 5-50 of the study. Exploratory efficacy endpoints included Change from Baseline patient reported outcome measures of Worst itch NRS, itchy VRS and ItchyQoL, by Treatment Period study visit and Baseline NRS score. There was also an assessment of any potential skin lesion changes over time using the metrics of the PAS.
Of the 63 patients that were randomized to the study of Example 2, 36 subjects who enrolled into Extension Study entered the Treatment Period of the study and were exposed to nalbuphine HCl ER tablet administration and are the basis of the study safety population analysis.
Patients in Extension Study were titrated over a dose range of 30 mg QD to 180 mg BID based on tolerability. The selected dose range was based on Example 2 study whereby patients were titrated from a 30 mg QD dose either to 30 mg BID, 60 mg BID, 90 mg BID, 120 mg BID or a 180 mg BID dose. The highest dose proposed was 180 mg BID (360 mg daily dose), and was well below the highest recommended daily treatment of 160 mg IV (equivalent to 960 mg oral) for the current marketed parenteral administered product.
The study duration for each patient was up to 52 weeks, with up to 50 weeks on study drug. The Extension Study consisted of a Treatment Period (that was followed by a Washout Safety Follow-up Period) and an Observation Period. Patients either entered directly into a drug Treatment Period (NRS >5) or a no-drug Observation Period (NRS ≤5) based on their reported NRS scores on the first Visit (Visit 1a). For up to 12 Extended Screening weeks, patients in the no-drug Observation Period could have also transitioned into the drug Treatment Period if their NRS increased to NRS >5. All patients entering the Treatment Period, whether immediately upon study entry or following a period of time in the Observation Period, were titrated to a dose ranging between 30 mg up to 180 mg BID, the highest dose tested in Example 2.

In the case of `Oc1ccc2c3c1OC1[C@@H](O)CC[C@@]4(O)[C@@H](C2)N(CC2CCC2)CC[C@]314` (stereo partly drawn) [Nalbuphine, 17-(cyclobutylmethyl)-4,5α-epoxymorphinian-3, 6α, 14-triol, hydrochloride], the “ItchyQoL Total Score Visit Mean (SD)” value is 70.3 (18.7) (Study Week 3, N=33); 67.8 (19.0) (Study Week 5, N=31); 65.8 (18.5) (Study Week 9, N=28); 65.7 (17.4) (Study Week 13, N=24); 63.5 (19.4) (Study Week 17, N=24); 62.6 (18.0) (Study Week 21, N=21). In addition, the “ItchyQoL Total Score Visit Mean (SD)” value is 59.4 (16.8) (Study Week 26, N=20); 60.8 (18.9) (Study Week 30, N=19); 62.2 (15.2) (Study Week 34, N=17); 61.9 (16.1) (Study Week 38, N=16); 63.4 (15.3) (Study Week 42, N=16); 62.4 (14.1) (Study Week 46, N=16). In addition, where the note is “Study Week 50, N=14”, the “ItchyQoL Total Score Visit Mean (SD)” value was 63.3 (15.9).
